Several values for one entry are separate records, joined by “and”; a condition that tells them apart may be missing. Equal entries are not always repeated. Where two headings read alike, the source gives them in different places.
Key:
[1] = test system: NL-RLuc virus (recombinant HIV NL4-3 with Renilla Luciferase) in MT-2 cells; assay: Inhibition of HIV replication (NL-RLuc virus in MT-2 cells, luciferase readout); assay type: cell-based, human immunodeficiency virus (HIV)
Method in brief: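 NL4-3 carrying Renilla luciferase in place of part of nef, produced in 293T cells, was used to infect MT-2 cells in RPMI 1640/10% FBS with serial compound dilutions. After 5 days, virus growth was read by luciferase. EC50 came from the median effect equation over at least 2 experiments.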

[2] = MT2, 120 h, NL-RLuc virus infecting MT-2 cells, 5 days of incubation, 10% FBS, luciferase quantitation, at least 2 experiments
[3] = NL-RLuc virus infecting MT-2 cells, 5 days of incubation, 10% FBS, luciferase quantitation, at least 2 experiments, read-out: EC50

Cc1ccc2c(c1)COCc1cc3nc(C)c([C@H](OC(C)(C)C)C(=O)O)c(n3n1)N1CCC(C)(CC1)OCC=CC[C@H](C)O2 [Example 29, (2S)-2-(tert-Butoxy)-2-[(20S)-4,15,20,26-tetramethyl-11,19,25-trioxa-1,5,7,8-tetraazapentacyclo[24.2.2.1^6,^9.0^2,^7.0^13,^18]hentriaconta-2,4,6(31),8,13,15,17,22-octaen-3-yl]acetic acid]
ring closure, yield after HPLC (from C=CCOC1(C)CCN(c2c([C@H](OC(C)(C)C)C(=O)O)c(C)nc3cc(COCc4cc(C)ccc4O[C@@H](C)CC=C)nn23)CC1, rcm bond, 20-membered ring, Hoveyda-Grubbs II/CuI, DCE, 13.0 mM, 90.0 °C, 3.0 h): 5.64% | EC50 [1, 2]: 0.006 µM

CCOC(=O)[C@@H](OC(C)(C)C)c1c(C)nc2cc3nn2c1N1CCC(C)(CC1)OCCCC[C@H](C)Oc1cc(F)c(F)cc1CCC3
ring closure, yield after HPLC (from CCOC(=O)[C@@H](OC(C)(C)C)c1c(C)nc2cc(CCCc3cc(F)c(F)cc3O)nn2c1N1CCC(C)(OCCCC[C@@H](C)O)CC1, ether bond, 20-membered ring, PPh3/DEAD, THF, 10.5 mM, 3.0 h, 2 steps): 19.2%

Cc1nc2cc3nn2c(c1[C@H](OC(C)(C)C)C(=O)O)N1CCC(C)(CC1)OCC=CC[C@H](C)Oc1cc(Cl)ccc1COC3 [Example 34, (2S)-2-(tert-Butoxy)-2-[(20S)-16-chloro-4,20,26-trimethyl-11,19,25-trioxa-1,5,7,8-tetraazapentacyclo[24.2.2.1^6,^9.0^2,^7.0^13,^18]hentriaconta-2,4,6(31),8,13,15,17,22-octaen-3-yl]acetic acid]
ring closure, yield after HPLC (from C=CCOC1(C)CCN(c2c([C@H](OC(C)(C)C)C(=O)O)c(C)nc3cc(COCc4ccc(Cl)cc4O[C@@H](C)CC=C)nn23)CC1, rcm bond, 20-membered ring, Hoveyda-Grubbs II/CuI, DCE, 31.5 mM, 90.0 °C, 1.5 h): 7.32% | EC50 [1, 2]: 0.005 µM

CCOC(=O)[C@@H](OC(C)(C)C)c1c(C)nc2cc3nn2c1N1CCC(C)(CC1)OCCCC[C@H](C)Oc1ccc(F)c(F)c1CCC3
ring closure, yield after HPLC (from CCOC(=O)[C@@H](OC(C)(C)C)c1c(C)nc2cc(CCCc3c(O)ccc(F)c3F)nn2c1N1CCC(C)(OCCCC[C@@H](C)O)CC1, ether bond, 20-membered ring, PPh3/DEAD, THF, 5.2 mM, 3.0 h, 2 steps): 23.6%

Cc1nc2cc3nn2c(c1[C@H](OC(C)(C)C)C(=O)O)N1CCC(C)(CC1)OCC=CC[C@H](C)Oc1ccc(F)cc1COC3 [Example 27, (2S)-2-(tert-Butoxy)-2-[(20S)-15-fluoro-4,20,26-trimethyl-11,19,25-trioxa-1,5,7,8-tetraazapentacyclo[24.2.2.1^6,^9.0^2,^7.0^13,^18]hentriaconta-2,4,6(31),8,13,15,17,22-octaen-3-yl]acetic acid]
ring closure, yield after HPLC (from C=CCOC1(C)CCN(c2c([C@H](OC(C)(C)C)C(=O)O)c(C)nc3cc(COCc4cc(F)ccc4O[C@@H](C)CC=C)nn23)CC1, rcm bond, 20-membered ring, Hoveyda-Grubbs II/CuI, DCE, 0.41 mM, 90.0 °C, 3.0 h): 50.2% | EC50 [1, 2]: 0.037 µM

CCOC(=O)[C@@H](OC(C)(C)C)c1c(C)nc2cc3nn2c1N1CCC(C)(CC1)OCC=CCOc1ccccc1CC(=O)NC3
ring closure, yield after HPLC (from C=CCOc1ccccc1CC(=O)NCc1cc2nc(C)c([C@H](OC(C)(C)C)C(=O)OCC)c(N3CCC(C)(OCC=C)CC3)n2n1, rcm bond, 20-membered ring, Hoveyda-Grubbs II (5 mol%), then NaOH, 1,2-dichloroethane, 8.6 mM, 70.0 °C, 4.0 h, 2 steps): 11.6% and 31.6%

CCOC(=O)[C@@H](OC(C)(C)C)c1c(C)nc2cc3nn2c1N1CCC(C)(CC1)OCC=CCc1ccccc1C(=O)NC3
ring closure, yield after HPLC (from C=CCOC1(C)CCN(c2c([C@H](OC(C)(C)C)C(=O)OCC)c(C)nc3cc(CNC(=O)c4ccccc4CC=C)nn23)CC1, rcm bond, 18-membered ring, Hoveyda-Grubbs II (5 mol%), then NaOH, 1,2-dichloroethane, 4.7 mM, 70.0 °C, 2.0 h, 2 steps): 71.1%

CCOC(=O)[C@@H](OC(C)(C)C)c1c(C)nc2cc3nn2c1N1CCC(C)(CC1)OCCCC[C@H](C)Oc1c(F)cc(F)cc1CCC3
ring closure, yield after HPLC (from CCOC(=O)[C@@H](OC(C)(C)C)c1c(C)nc2cc(CCCc3cc(F)cc(F)c3O)nn2c1N1CCC(C)(OCCCC[C@@H](C)O)CC1, ether bond, 20-membered ring, PPh3/DEAD, THF, 6.4 mM, 3.0 h, 2 steps): 37.6%

CCOC(=O)[C@@H](OC(C)(C)C)c1c(C)nc2cc3nn2c1N1CCC(C)(CC1)OCC=CCOC1(CCCCC1)c1cn(nn1)C3
ring closure, yield after HPLC (from C=CCOC1(C)CCN(c2c([C@H](OC(C)(C)C)C(=O)OCC)c(C)nc3cc(Cn4cc(C5(OCC=C)CCCCC5)nn4)nn23)CC1, rcm bond, 19-membered ring, Hoveyda-Grubbs II (5 mol%), then NaOH, 1,2-dichloroethane, 4.3 mM, 70.0 °C, 2.0 h, 2 steps): 30.6% and 24.1%

CCOC(=O)[C@@H](OC(C)(C)C)c1c(C)nc2cc3nn2c1N1CCC(C)(CC1)OCC=CC[C@H](C)Oc1cc(F)c(F)cc1COC3
ring closure, yield after HPLC (from C=CCOC1(C)CCN(c2c([C@H](OC(C)(C)C)C(=O)OCC)c(C)nc3cc(COCc4cc(F)c(F)cc4O[C@@H](C)CC=C)nn23)CC1, rcm bond, 20-membered ring, Hoveyda-Grubbs II/CuI, DCE, 4.25 mM, 90.0 °C, 3.0 h): 27%

CCOC(=O)[C@@H](OC(C)(C)C)c1c(C)nc2cc3nn2c1N1CCC(C)(CC1)OCC=CCOc1cccc(c1)-c1cn(nn1)C3
ring closure, yield after HPLC (from C=CCOc1cccc(-c2cn(Cc3cc4nc(C)c([C@H](OC(C)(C)C)C(=O)OCC)c(N5CCC(C)(OCC=C)CC5)n4n3)nn2)c1, rcm bond, 21-membered ring, Hoveyda-Grubbs II (5 mol%), then H2, Pd/C, then NaOH, 1,2-dichloroethane, 1.8 mM, 70.0 °C, 2.0 h, 3 steps): 37.2%

Cc1ccc2c(c1)CCCCOC1(C)CCN(CC1)c1c([C@H](OC(C)(C)C)C(=O)O)c(C)nc3cc(nn13)COC2 [Example 65, (2S)-2-(tert-Butoxy)-2-{4,16,24-trimethyl-11,23-dioxa-1,5,7,8-tetraazapentacyclo[22.2.2.1^6,^9.0^2,^7.0^13,^18]nonacosa-2,4,6(29),8,13(18),14,16-heptaen-3-yl}acetic acid]
EC50 [1, 2]: 0.002 µM

Cc1ccc2c(c1)O[C@@H](C)C/C=C/COC1(C)CCN(CC1)c1c([C@H](OC(C)(C)C)C(=O)O)c(C)nc3cc(nn13)COC2 [Example 37, (2S)-2-(tert-Butoxy)-2-[(20S,22E)-4,16,20,26-tetramethyl-11,19,25-trioxa-1,5,7,8-tetraazapentacyclo[24.2.2.1^6,^9.0^2,^7.0^13,^18]hentriaconta-2,4,6(31),8,13(18),14,16,22-octaen-3-yl]acetic acid]
EC50 [1, 3]: 0.004 µM

Cc1ccc2c(c1)O[C@@H](C)CCCCOC1(C)CCN(CC1)c1c([C@H](OC(C)(C)C)C(=O)O)c(C)nc3cc(nn13)CO[C@H]2C (single isomer, unassigned) [Example 55]
EC50 [1, 2]: 0.007 µM

Cc1nc2cc3nn2c(c1[C@H](OC(C)(C)C)C(=O)O)N1CCC(C)(CC1)OCC=CCOCc1cn(nn1)C3 [Example 1, (2S)-2-(tert-Butoxy)-2-[4,22-dimethyl-16,21-dioxa-1,5,7,8,11,12,13-heptaazapentacyclo[20.2.2.1^6,^9.1^11,^14.0^2,^7]octacosa-2,4,6(28),8,12,14(27),18-heptaen-3-yl]acetic acid]
EC50 [1, 2]: 2.49 µM

CCOC(=O)[C@@H](OC(C)(C)C)c1c(C)nc2cc3nn2c1N1CCC(C)(CC1)OCC=CCN(Cc1ccc(F)c(C)c1)C(=O)C(=O)NC3
ring closure, yield after HPLC (from C=CCOC1(C)CCN(c2c([C@H](OC(C)(C)C)C(=O)OCC)c(C)nc3cc(CNC(=O)C(=O)N(CC=C)Cc4ccc(F)c(C)c4)nn23)CC1, rcm bond, 18-membered ring, Hoveyda-Grubbs II (5 mol%), then NaOH, 1,2-dichloroethane, 4.03 mM, 70.0 °C, 2.0 h, 2 steps): 63.3%

CCCC1CCCCOC2(C)CCN(CC2)c2c([C@H](OC(C)(C)C)C(=O)O)c(C)nc3cc(nn23)COCc2cc(F)ccc2O1 (stereo partly drawn) [Example 50, (2S)-2-(tert-butoxy)-2-{15-fluoro-4,26-dimethyl-20-propyl-11,19,25-trioxa-1,5,7,8-tetraazapentacyclo[24.2.2.1^6,^9.0^2,^7.0^13,^18]hentriaconta-2,4,6(31),8,13(18),14,16-heptaen-3-yl}acetic acid]
EC50 ([1]; {}): 0.019 µM

Cc1nc2cc3nn2c(c1[C@H](OC(C)(C)C)C(=O)O)N1CCC(C)(CC1)OCCCCOC(C(C)C)c1cn(nn1)C3 (stereo partly drawn) [Example 10, (2S)-2-(tert-Butoxy)-2-[4,22-dimethyl-15-(propan-2-yl)-16,21-dioxa-1,5,7,8,11,12,13-heptaazapentacyclo[20.2.2.1^6,^9.1^11,^14.0^2,^7]octacosa-2,4,6(28),8,12,14(27)-hexaen-3-yl]acetic acid]
EC50 [1, 2]: 0.251 µM

Cc1nc2cc3nn2c(c1[C@H](OC(C)(C)C)C(=O)O)N1CCC(C)(CC1)OC/C=C\Cc1ccccc1OC3 [Example 22, (2S)-2-(tert-Butoxy)-2-[(19Z)-4,23-dimethyl-11,22-dioxa-1,5,7,8-tetraazapentacyclo[21.2.2.1^6,^9.1^2,^7.0^12,^17]octacosa-2,4,6(28),8,12(17),13,15,19-octaen-3-yl]acetic acid]
EC50 [1, 3]: 0.141 µM

Cc1nc2cc3nn2c(c1[C@H](OC(C)(C)C)C(=O)O)N1CCC(C)(CC1)OCCC=COC(C)(C)c1cn(nn1)C3 [Example 4, (2S)-2-(tert-Butoxy)-2-[4,15,15,22-tetramethyl-16,21-dioxa-1,5,7,8,11,12,13-heptaazapentacyclo[20.2.2.1^6,^9.1^11,^14.0^2,^7]octacosa-2,4,6(28),8,12,14(27),17-heptaen-3-yl]acetic acid]
EC50 [1, 3]: 0.249 µM

Cc1nc2cc3nn2c(c1[C@H](OC(C)(C)C)C(=O)O)N1CCC(C)(CC1)OCCCCOCc1ccccc1-c1cn(nn1)C3 [Example 5, (2S)-2-(tert-Butoxy)-2-{4,28-dimethyl-22,27-dioxa-1,5,7,8,11,12,13-heptaazahexacyclo[26.2.2.1^6,^9.1^11,^14.0^2,^7.0^15,^20]tetratriaconta-2,4,6(34),8,12,14(33),15(20),16,18-nonaen-3-yl}acetic acid]
EC50 [1, 2]: 0.045 µM

Source: US9273067B2, “Pyrazolopyrimidine macrocycles as inhibitors of human immunodeficiency virus replication” (BRISTOL-MYERS SQUIBB COMPANY, priority 2014, dated 2016)
